In general, IC50 refers to the concentration at which inhibition is half-maximal.

Experiment [1] has as its target T1, human recombinant 15-PGDH (Homo sapiens, UniProt P15428).
T1 sequence (P15428 1-266): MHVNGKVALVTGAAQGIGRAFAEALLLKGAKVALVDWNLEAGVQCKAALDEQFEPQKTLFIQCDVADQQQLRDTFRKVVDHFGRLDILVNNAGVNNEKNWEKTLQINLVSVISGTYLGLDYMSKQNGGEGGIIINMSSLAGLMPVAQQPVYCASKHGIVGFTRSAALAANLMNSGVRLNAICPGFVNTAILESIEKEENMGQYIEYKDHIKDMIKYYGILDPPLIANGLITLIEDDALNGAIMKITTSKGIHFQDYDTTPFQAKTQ
The experiment in a line: Recombinant 15-PGDH enzymatic inhibition assay (PGDH-Lumi, NADH signal). The experiment is classed as biochemical. As to conditions: recombinant 15-PGDH; 15 min pre-incubation, 60 min reaction with PGE2 and NAD+, NADH signal. An outline of the steps:
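Recombinant 15-PGDH pre-incubated 15 min at room temperature with compound (22 concentrations, 2-fold dilutions) in 50 mM Tris pH 7.5, 0.01% Tween-20, […].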

Experiment [2] deals with T2, 15-PGDH in A549 cells (Homo sapiens, UniProt P15428).
T2 construct: endogenous in cells; host or cells: A549
T2 sequence (P15428 1-266): T1 sequence (P15428 1-266)
The experiment in a line: A549 cellular 15-PGDH assay (PGE2 accumulation, HTRF). Format: cell-based. The following applies: interleukin-stimulated, inhibitor 24 hrs, PGE2 by competitive HTRF, read-out: A549 Cell Assay IC50. An outline of the steps:
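IL-13-stimulated A549 lung carcinoma cells released PGE2, which was measured in supernatants by competitive HTRF with a Eu-cryptate anti-PGE2 antibody and labelled PGE2. Signal falls as PGE2 rises. IC50 values were derived from the binding data.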
In general terms: TR-FRET usually uses a lanthanide donor and a delayed reading to cut background.

On to `Cc1cn2ccc(-c3ccc4cc(C5(O)CC(F)(F)C5)sc4n3)cc2n1` [Compound C44, 3,3-difluoro-1-(6-(2-methylimidazo[1,2-a]pyridin-7-yl)thieno[2,3-b]pyridin-2-yl)cyclobutanol], for which the IC50 in experiment [1] was found to be 7.56 nM; in experiment [2], 6.17 nM.

For `C[C@H](O)c1cc2c(-c3ccnn3C)cc(-c3cnc4nn(C)cc4c3)nc2s1` (single isomer, unassigned) [Compound B6S], the concentration for half-maximal inhibition (IC50) in experiment [1] is 89.6 nM; in experiment [2] it was 102 nM.

Turning to `Cc1cn2ncc(-c3ccc4cc([C@]5(O)C[C@@H](C(F)F)C5)sc4n3)cc2n1` [Compound C92C, cis-3-(difluoromethyl)-1-(6-(2-methylimidazo[1,2-b]pyridazin-7-yl)thieno[2,3-b]pyridin-2-yl)cyclobutanol], the results for the IC50 in experiment [1] and in experiment [2] were 1.46 nM and 5.27 nM, respectively.

As for `Cc1c([C@@H](O)C2CC(F)(F)C2)sc2nc(-c3cnc4nn(C)cc4c3)ccc12` (single isomer, unassigned) [Compound B83S], the values for the IC50 in experiment [1] and in experiment [2] were 5.13 nM and 1.11 nM, respectively.

Turning to `Cn1cc2cc(-c3ccc4cc(C5(O)CC(F)(F)C5)sc4n3)cnc2n1` [Compound C5, 3,3-difluoro-1-(6-(2-methyl-2H-pyrazolo[3,4-b]pyridin-5-yl)thieno[2,3-b]pyridin-2-yl)cyclobutanol], the results for the IC50 in experiment [1] and in experiment [2] were 0.371 nM and 1.69 nM, respectively.

Consider `Cn1nc2cc(-c3ccc4cc([C@H](O)C5CCOCC5)sc4n3)cnc2n1` (single isomer, unassigned) [Compound B39R], for which the IC50 in experiment [1] came to 0.423 nM; in experiment [2] it was 2.37 nM.

In the case of `Cn1cc2cc(-c3ncc4cc([C@]5(O)C[C@@]6(CC6(F)F)C5)sc4n3)cnc2n1` (single isomer, unassigned) [Compound C114T, trans-1,1-difluoro-5-(2-(2-methyl-2H-pyrazolo[3,4-b]pyridin-5-yl)thieno[2,3-d]pyrimidin-6-yl)spiro[2.3]hexan-5-ol], the IC50 in experiment [1] was 0.488 nM; in experiment [2], 0.669 nM.

For the compound `Cn1nnc2cc(-c3ncc4cc([C@]5(O)C[C@@H](C(F)F)C5)sc4n3)cnc21` [Compound C85C, cis-3-(difluoromethyl)-1-(2-(3-methyl-3H-[1,2,3]triazolo[4,5-b]pyridin-6-yl)thieno[2,3-d]pyrimidin-6-yl)cyclobutanol], the IC50 stood at 2.89 nM in experiment [1] and 7.6 nM in experiment [2].

In the case of `Cn1cc2cc(-c3ccc4sc([C@]5(O)C[C@@](C)(C#N)C5)cc4n3)cnc2n1` (single isomer, unassigned) [Compound C106C, cis-3-hydroxy-1-methyl-3-(5-(2-methyl-2H-pyrazolo[3,4-b]pyridin-5-yl)thieno[3,2-b]pyridin-2-yl)cyclobutanecarbonitrile], the IC50 turned out to be 16.7 nM in experiment [1] and 29.4 nM in experiment [2].

As to `Cn1cc2cc(-c3cnc4cc([C@@H](O)C5CC(F)(F)C5)sc4c3)cnc2n1` (single isomer, unassigned) [Compound B78S], the IC50 in experiment [1] was determined as 896 nM; in experiment [2], 57.1 nM.

As to `CC(C)n1ncc2cc(-c3ccc4cc(C(O)C5CC(F)(F)C5)sc4n3)cnc21` (centres unmarked) [Compound B65, (3,3-difluorocyclobutyl)(6-(1-(2-propanyl)-1H-pyrazolo[3,4-b]pyridin-5-yl)thieno[2,3-b]pyridin-2-yl)methanol], the values for the IC50 in experiment [1] and in experiment [2] were 0.944 nM and 0.437 nM, respectively.

Take `Cn1cc2cc(-c3ccc4cc([C@H](CO)C5CC(F)(F)C5)sc4n3)cnc2n1` (single isomer, unassigned) [Compound B80S]: the IC50 in experiment [1] was 1.16 nM; in experiment [2], 0.339 nM.

Take `Cn1cc2cc(-c3ccc4sc([C@]5(O)C[C@@H](OC(F)(F)F)C5)cc4n3)cnc2n1` [Compound C117C, cis-1-(5-(2-methyl-2H-pyrazolo[3,4-b]pyridin-5-yl)thieno[3,2-b]pyridin-2-yl)-3-(trifluoromethoxy)cyclobutanol]: the IC50 in experiment [1] was found to be 0.429 nM; in experiment [2], 1.46 nM.

As to `Cn1cc2cc(-c3ccc4sc([C@]5(O)C[C@@H](C(F)(F)F)C5)cc4n3)cnc2n1` [Compound C86C, cis-1-(5-(2-methyl-2H-pyrazolo[3,4-b]pyridin-5-yl)thieno[3,2-b]pyridin-2-yl)-3-(trifluoromethyl)cyclobutanol], the IC50 in experiment [1] came out at 1.52 nM; in experiment [2], 4.12 nM.

Take `COC[C@H]1C[C@](O)(c2cc3cnc(-c4cnc5nn(C)cc5c4)nc3s2)C1` [Compound C119C, cis-3-(methoxymethyl)-1-(2-(2-methyl-2H-pyrazolo[3,4-b]pyridin-5-yl)thieno[2,3-d]pyrimidin-6-yl)cyclobutanol]: the IC50 in experiment [1] was 2.8 nM; in experiment [2], 6.66 nM.

With `CO[C@]1(C(F)(F)F)C[C@](O)(c2cc3cnc(-c4cnc5nn(C)cc5c4)nc3s2)C1` (single isomer, unassigned) [Compound C113T, trans-3-methoxy-1-(2-(2-methyl-2H-pyrazolo[3,4-b]pyridin-5-yl)thieno[2,3-d]pyrimidin-6-yl)-3-(trifluoromethyl)cyclobutanol], the values for the IC50 in experiment [1] and in experiment [2] were 0.426 nM and 1.11 nM, respectively.

Take `Cn1cc2cc(-c3ccc4cc([C@]5(O)C[C@]6(CCO6)C5)sc4n3)cnc2n1` (single isomer, unassigned) [Compound C56C, cis-6-(6-(2-methyl-2H-pyrazolo[3,4-b]pyridin-5-yl)thieno[2,3-b]pyridin-2-yl)-1-oxaspiro[3.3]heptan-6-ol]: the IC50 in experiment [1] was found to be 0.423 nM; in experiment [2], 0.18 nM.

`Cn1cc2cc(-c3cnc4sc([C@@H](O)C5CC(F)(F)C5)cc4c3)cnc2n1` (single isomer, unassigned) [Compound B77S]: the results for the IC50 in experiment [1] and in experiment [2] were 154 nM and 11.4 nM, respectively.

Turning to `[2H][C@](O)(c1cc2ccc(-c3cnc4nn(C)cc4c3)nc2s1)C1CCOCC1` (single isomer, unassigned) [Compound B66R], the IC50 turned out to be 0.396 nM in experiment [1] and 0.303 nM in experiment [2].

Turning to `Cn1cc2cc(-c3ncc4cc([C@]5(O)C[C@](C)(C#N)C5)sc4n3)cnc2n1` (single isomer, unassigned) [Compound C96T, trans-3-hydroxy-1-methyl-3-(2-(2-methyl-2H-pyrazolo[3,4-b]pyridin-5-yl)thieno[2,3-d]pyrimidin-6-yl)cyclobutanecarbonitrile], the IC50 stood at 0.445 nM in experiment [1] and 1.39 nM in experiment [2].

`Cn1cc2cc(-c3ccc4nc([C@]5(O)C[C@@]6(CC6(F)F)C5)sc4n3)cnc2n1` (single isomer, unassigned) [Compound C115T, trans-1,1-difluoro-5-(5-(2-methyl-2H-pyrazolo[3,4-b]pyridin-5-yl)[1,3]thiazolo[5,4-b]pyridin-2-yl)spiro[2.3]hexan-5-ol]: the IC50 in experiment [1] amounted to 0.513 nM; in experiment [2], 1.39 nM.

Consider `CO[C@]1(C)C[C@](O)(c2cc3cnc(-c4cnc5nn(C)cc5c4)nc3s2)C1` (single isomer, unassigned) [Compound C118T], for which the results for the IC50 in experiment [1] and in experiment [2] were 0.864 nM and 2.73 nM, respectively.

As for `Cn1cc2cc(-c3cnc4cc([C@H](O)C5CC(F)(F)C5)sc4c3)cnc2n1` (single isomer, unassigned) [Compound B78R], the values for the IC50 in experiment [1] and in experiment [2] were 17 nM and 2.49 nM, respectively.

On to `Cn1cc2cc(-c3ccc4cc(C(O)C5CC5)sc4n3)cnc2n1` (centres unmarked) [Compound B16, cyclopropyl(6-(2-methyl-2H-pyrazolo[3,4-b]pyridin-5-yl)thieno[2,3-b]pyridin-2-yl)methanol], for which the IC50 in experiment [1] worked out at 0.471 nM; in experiment [2], 1.19 nM.

As to `CC(C)n1cc2cc(-c3ccc4cc([C@H](O)C5CC(F)(F)C5)sc4n3)cnc2n1` (single isomer, unassigned) [Compound B64R], the results for the IC50 in experiment [1] and in experiment [2] were 0.325 nM and 0.311 nM, respectively.

`Cn1cc2cc(-c3ccc4sc([C@]5(O)C[C@@H](C(F)F)C5)cc4n3)cnc2n1` [Compound C84C, cis-3-(difluoromethyl)-1-(5-(2-methyl-2H-pyrazolo[3,4-b]pyridin-5-y1)thieno[3,2-b]pyridin-2-yl)cyclobutanol]: the IC50 in experiment [1] stood at 7.79 nM; in experiment [2] it was 13.2 nM.

`Cn1cnc(-c2ccc3cc([C@H](O)C4CC(F)(F)C4)sc3n2)cc1=O` (single isomer, unassigned) [Compound B49R]: the IC50 in experiment [1] was 0.26 nM; in experiment [2], 0.723 nM.

For the compound `Cn1nnc2cc(-c3ccc4cc([C@]5(O)C[C@@](C)(C#N)C5)sc4n3)cnc21` (single isomer, unassigned) [Compound C104C, cis-3-hydroxy-1-methyl-3-(6-(3-methyl-3H-[1,2,3]triazolo[4,5-b]pyridin-6-yl)thieno[2,3-b]pyridin-2-yl)cyclobutanecarbonitrile], the 50% inhibitory concentration (IC50) is 3.88 nM in experiment [1] and 11.3 nM in experiment [2].

For `Cn1cc2cc(-c3ccc4cc(C(O)C5CCOC5)sc4n3)cnc2n1` (centres unmarked) [Compound B19], the IC50 in experiment [1] came to 0.538 nM; in experiment [2], 0.171 nM.

Take `Cn1cc2cc(-c3ccc4cc([C@@H](O)[C@@H]5CCC5(F)F)sc4n3)cnc2n1` (single isomer, unassigned) [Compound B94SS]: the half-inhibitory concentration (IC50) was determined as 1.23 nM in experiment [1] and 3.63 nM in experiment [2].

On to `Cn1cc2cc(-c3ccc4cc([C@@H](O)C5(C)CC(F)(F)C5)sc4n3)cnc2n1` (single isomer, unassigned) [Compound B86S], for which the figures for the IC50 in experiment [1] and in experiment [2] were 286 nM and 1.61 nM, respectively.

(Values after US20240409557A1, “5,6-FUSED AND 6,6-FUSED BICYCLIC ALCOHOLS AND ETHERS AND COMPOSITIONS FOR USE AS 15-PROSTAGLANDIN DEHYDROGENASE MODULATORS” (AMGEN INC., priority 2023, published 2024).)
